# Where a name gives a salt, the structure may show the parent alone.
# Target: human VR1 (Homo sapiens, UniProt Q8NER1)
# Assay: Human VR1 antagonist assay (Ca2+ imaging)
# Format: cell-based
# Conditions: Ca2+ imaging assay using human VR1 highly expressing cells, fura-2/AM; agonist stimulation (capsaicin 300 nM or acid pH 5.8), not given
# Text: Human VR1 Antagonist Assay
# VR1 antagonistic activity can be determined by the Ca^2+ imaging assay using human VR1 highly expressing cells. The cells that highly express human VR1 receptors are obtainable from several different conventional methods. The one standard method is cloning from human Dorsal Root Ganglion (DRG) or kidney according to the methods such as described in the journal article; Nature, 389, pp 816-824, 1997. Alternatively VR1 receptors highly expressing human keratinocytes are also known and published in the journal article (Biochemical and Biophysical Research Communications, 291, pp 124-129, 2002). […] Furthermore, the method to up regulate human VR1 gene, which is usually a silent gene or don't produce detectable level of VR1 receptors, is also available to obtain propriety cells. Such genetic modification method was described in detail; Nat. Biotechnol., 19, pp 440-445, 2001.
# The cells that express human VR1 receptors were maintained in culture flask at 37° C. in an environment containing 5% CO2 until use in the assay. The intracellular Ca^2+ imaging assay to determine VR1 antagonistic activities were done by following procedures.
# The culture medium was removed from the flask and fura-2/AM fluorescent calcium indicator was added to the flask at a concentration of 5 μM in the medium. The flask was placed in CO2 incubator and incubated for 1 hour. Then the cells expressing the human VR1 receptors were detached from the flask follow by washing with phosphate buffer saline, PBS(−) and re-suspended in assay buffer. The 80 μl of aliquot of cell suspension (3.75×10^5 cells/ml) was added to the assay plate and the cells were spun down by centrifuge (950 rpm, 20° C., 3 minutes).
# The compounds of the examples were tested in the Human VR1 antagonist assay described above.
# The capsaicin-induced changes in the intracellular calcium concentration were monitored using FDSS 6000 (Hamamatsu Photonics, Japan), a fluorometric imaging system. The cell suspension in Krebs-Ringer HEPES (KRH) buffer (115 mM NaCl, 5.4 mM KCl, 1 mM MgSO4, 1.8 mM CaCl2, 11 mM D-Glucose, 25 mM HEPES, 0.96 mM Na2HPO4, pH 7.3) were pre-incubated with varying concentrations of the test compounds or KRH buffer (buffer control) for 15 minutes at room temperature under the dark condition. Then capsaicin solution, which gives 300 nM in assay mixture, was automatically added to the assay plate by the FDSS 6000.
# The Acid-induced changes in the intracellular calcium concentration were monitored using FDSS 6000 (Hamamatsu Photonics, Japan), a fluorometric imaging system. The cell suspension in resting buffer (HBSS supplemented with 10 mM HEPES, pH 7.4) were pre-incubated with varying concentrations of the test compounds or resting buffer (buffer control) for 15 minutes at room temperature under the dark condition. The cells were automatically added the stimulating solution (HBSS supplemented with MES, final assay buffer pH5.8) by the FDSS 6000.
# The monitoring of the changes in the fluorescence signals (λex=340 nm/380 nm, λem=510-520 nm) was initiated at 1 minute prior to the addition of capsaicin solution or acidic buffer and continued for 5 minute.
# Chain of human VR1 (Q8NER1 whole entry): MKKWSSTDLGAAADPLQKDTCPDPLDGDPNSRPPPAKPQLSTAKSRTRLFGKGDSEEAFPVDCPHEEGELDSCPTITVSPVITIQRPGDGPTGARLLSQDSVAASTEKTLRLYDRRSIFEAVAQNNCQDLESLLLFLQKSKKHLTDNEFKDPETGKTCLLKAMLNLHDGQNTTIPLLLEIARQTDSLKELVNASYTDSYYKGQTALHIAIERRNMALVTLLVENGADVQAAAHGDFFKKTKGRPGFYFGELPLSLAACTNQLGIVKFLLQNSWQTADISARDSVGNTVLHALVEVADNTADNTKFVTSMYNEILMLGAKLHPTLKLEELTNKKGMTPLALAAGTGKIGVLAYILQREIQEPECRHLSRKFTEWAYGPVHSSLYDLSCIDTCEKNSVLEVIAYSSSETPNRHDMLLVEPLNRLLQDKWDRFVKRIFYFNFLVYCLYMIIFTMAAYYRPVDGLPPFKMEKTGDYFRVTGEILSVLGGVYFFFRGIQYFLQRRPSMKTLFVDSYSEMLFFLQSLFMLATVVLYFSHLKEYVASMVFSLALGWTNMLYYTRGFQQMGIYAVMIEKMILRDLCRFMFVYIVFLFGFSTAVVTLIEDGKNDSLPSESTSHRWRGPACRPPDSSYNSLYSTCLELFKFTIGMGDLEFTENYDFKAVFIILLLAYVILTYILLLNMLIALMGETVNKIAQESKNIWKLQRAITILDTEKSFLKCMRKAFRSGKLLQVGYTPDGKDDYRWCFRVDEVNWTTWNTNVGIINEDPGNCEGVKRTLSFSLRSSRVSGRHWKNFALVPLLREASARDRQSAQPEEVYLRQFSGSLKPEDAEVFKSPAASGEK
row,Structure (SMILES),IC50
1,"Cc1cc(CNC(=O)c2ccc3nc(C(C)(C)C(F)(F)F)ccc3c2)c2ccccc2n1 [Example C8, N-[(2-methylquinolin-4-yl)methyl]-2-(2,2,2-trifluoro-1,1-dimethylethyl)quinoline-6-carboxamide]",351 nM
2,"CC(NC(=O)c1ccc2nc(C(C)(C)C)ccc2c1)c1ccc2c(c1)CC(=O)N2 (stereo not drawn) [Example C3, 2-tert-butyl-N-[1-(2-oxo-2,3-dihydro-1H-indol-5-yl)ethyl] quinoline-6-carboxamide]",242 nM
3,"CC[C@@H](NC(=O)c1ccc2cc(C(C)(C)C)ccc2n1)c1ccc2[nH]nnc2c1 [Example B2, N-[(1R)-1-(1H-1,2,3-benzotriazol-6-yl)propyl]-6-tert-butylquinoline-2-carboxamide]",158 nM
4,"C[C@@H](NC(=O)c1ccc2cc(C(C)(C)C)ccc2n1)c1ccc2[nH]nnc2c1 [Example B1, N-[(1R)-1-(1H-1,2,3-benzotriazol-6-yl)ethyl]-6-tert-butylquinoline-2-carboxamide]",9.45 nM
5,CC(C)(C)c1ccc2cc(C(=O)NCc3ccnc4ccccc34)ccc2c1 [Example A2],17 nM
6,"CC(NC(=O)c1cnc2cc(C(C)(C)C)ccc2c1)c1ccnc2ccccc12 (stereo not drawn) [Example D1, 7-tert-butyl-N-(1-quinolin-4-ylethyl)quinoline-3-carboxamide]",246 nM
7,"C[C@@H](NC(=O)c1ccc2nc(C(C)(C)C)ccc2c1)c1ccc2[nH]c(=O)[nH]c2c1 [Example C2, 2-tert-butyl-N-[(1R)-1-(2-oxo-2,3-dihydro-1H-benzimidazol-6-yl)ethyl]quinoline-6-carboxamide]",142 nM
8,"Cc1cccc2c(CNC(=O)c3ccc4nc(C(C)(C)C(F)(F)F)ccc4c3)ccnc12 [Example C16, N-[(8-methylquinolin-4-yl)methyl]-2-(2,2,2-trifluoro-1,1-dimethylethyl)quinoline-6-carboxamide]",437 nM
9,"C[C@@H](NC(=O)c1ccc2cc(C(C)(C)C)ccc2c1)c1ccc2nn[nH]c2c1 [Example A1, N-[(1R)-1-(1H-1,2,3-benzotriazol-6-yl)ethyl]-6-tert-butyl-2-naphthamide]",17.9 nM
10,"Oc1cc2c(cc1O)CN(C(=S)NCCc1ccc(Cl)cc1)CCC2 [capsazepine, reference compound]",237 to 455 nM
11,"CC(NC(=O)c1ccc2nc(C(C)(C)C(F)(F)F)ccc2c1)c1ccc2[nH]c(=O)[nH]c2c1 (stereo not drawn) [Example C9, N-[1-(2-oxo-2,3-dihydro-1H-benzimidazol-5-yl)ethyl]-2-(2,2,2-trifluoro-1,1-dimethylethyl)quinoline-6-carboxamide]",151 nM
12,"CC(C)(c1ccc2cc(C(=O)NCc3ccnc4ccc(F)cc34)ccc2n1)C(F)(F)F [Example C11, N-[(6-fluoroquinolin-4-yl)methyl]-2-(2,2,2-trifluoro-1,1-dimethylethyl)quinoline-6-carboxamide]",173 nM
13,"CC(NC(=O)c1ccc2nc(C(C)(C)C(F)(F)F)ccc2c1)c1ccc2c(c1)CC(=O)N2 (stereo not drawn) [Example C10, N-[1-(2-oxo-2,3-dihydro-1H-indol-5-yl)ethyl]-2-(2,2,2-trifluoro-1,1-dimethylethyl)quinoline-6-carboxamide]",274 nM
14,"CC(NC(=O)c1ccc2cc(C(C)(C)C)ccc2n1)c1ccnc2ccccc12 (stereo not drawn) [Example B5, 6-tert-butyl-N-(1-quinolin-4-ylethyl)quinoline-2-carboxamide hydrochloride]",204 nM
15,"CC(NC(=O)c1ccc2cc(C(C)(C)C)ccc2c1)c1ccc2c(c1)CC(=O)N2 (stereo not drawn) [Example A4, 6-tert-butyl-N-[1-(2-oxo-2,3-dihydro-1H-indol-5-yl)ethyl]-2-naphthamide]",85.7 nM
16,"C[C@@H](NC(=O)c1ccc2nc(C(C)(C)C(F)(F)F)ccc2c1)c1ccnc2ccccc12 (single isomer, unassigned) [Example C13]",49.8 nM
17,"CC(NC(=O)c1ccc2nc(C(C)(C)C(F)(F)F)ccc2c1)c1ccc2[nH]ncc2c1 (stereo not drawn) [Example C4, N-[1-1H-indazole-5-ylethyl]-2-(2,2,2-trifluoro-1,1-dimethylethyl)quinoline-6-carboxamide]",23 nM
18,"CC(C)(c1ccc2cc(C(=O)NC(CO)c3ccnc4ccccc34)ccc2n1)C(F)(F)F (stereo not drawn) [Example C20, N-(2-hydroxy-1-quinolin-4-ylethyl)-2-(2,2,2-trifluoro-1,1-dimethylethyl)quinoline-6-carboxamide]",570 nM

# Further molecules by falling IC50, results first:
row,IC50,Structure (SMILES)
1,410 nM,"O=C(NCc1ccnc2ccccc12)c1ccc2cc(C3CC3)ccc2c1 [Example A8, 6-cyclopropyl-N-(quinolin-4-ylmethyl)-2-naphthamide]"
2,382 nM,"C[C@@H](NC(=O)c1ccc2cc(C(C)(O)C(F)(F)F)ccc2c1)c1ccnc2ccccc12 (stereo partly drawn) [Example A9, N-[(1R)-1-quinolin-4-ylethyl]-6-(2,2,2-trifluoro-1-hydroxy-1-methylethyl)-2-naphthamide]"
3,316 nM,"C[C@@H](NC(=O)c1ccc2nc(C(C)(O)C(F)(F)F)ccc2c1)c1ccnc2ccccc12 (stereo partly drawn) [Example C15, N-[(1R)-1-quinolin-4-ylethyl]-2-(2,2,2-trifluoro-1-hydroxy-1-methylethyl)quinoline-6-carboxamide]"
4,266 nM,"CC(C)(c1ccc2cc(C(=O)NCc3ccnc4c(F)cc(F)cc34)ccc2n1)C(F)(F)F [Example C12, N-[(6,8-difluoroquinolin-4-yl)methyl]-2-(2,2,2-trifluoro-1,1-dimethylethyl)quinoline-6-carboxamide]"
5,176 nM,"CC(O)(c1ccc2cc(C(=O)NCc3cccc4cnccc34)ccc2n1)C(F)(F)F (stereo not drawn) [Example C17, N-(isoquinolin-5-ylmethyl)-2-(2,2,2-trifluoro-1-hydroxy-1-methylethyl)quinoline-6-carboxamide]"
6,140 nM,"CC1(c2ccc3cc(C(=O)NCc4ccnc5ccccc45)ccc3c2)CC1 [Example A7, 6-(1-methylcyclopropyl)-N-(quinolin-4-ylmethyl)-2-naphthamide]"
7,136 nM,"CCC(NC(=O)c1ccc2nc(C(C)(C)C(F)(F)F)ccc2c1)c1ccnc2ccccc12 (stereo not drawn) [Example C18, N-(1-quinolin-4-ylpropyl)-2-(2,2,2-trifluoro-1,1-dimethylethyl) quinoline-6-carboxamide]"
8,132 nM,"C[C@@H](NC(=O)c1ccc2cc(C(C)(C)C)ccc2n1)c1ccnc2ccccc12 (single isomer, unassigned) [Example B7, 6-tert-butyl-N-(1-quinolin-4-ylethyl)quinoline-2-carboxamide]"
9,117 nM,"CC(C)(C)c1ccc2nc(C(=O)NCc3ccnc4ccccc34)ccc2c1 [Example B3, 6-tert-butyl-N-(quinolin-4-ylmethyl)quinoline-2-carboxamide]"
10,72 nM,"CC(C)(c1ccc2cc(C(=O)NCc3ccnc4ccccc34)ccc2n1)C(F)(F)F [Example C5, N-(quinolin-4-ylmethyl)-2-(2,2,2-trifluoro-1,1-dimethylethyl) quinoline-6-carboxamide]"
11,61.6 nM,"CC(C)(C)c1ccc2cc(C(=O)NCc3ccc4c(c3)CN=N4)ccc2c1 [Example A3, 6-tert-butyl-N-(3H-indazol-5-ylmethyl)-2-naphthamide]"
12,52 nM,"COC(C)(c1ccc2cc(C(=O)NCc3ccnc4ccccc34)ccc2c1)C(F)(F)F (stereo not drawn) [Example A6, N-(quinolin-4-ylmethyl)-6-(1,1,1-trifluoro-2-methoxypropan-2-yl)-2-naphthamide]"
13,39.2 nM,"C[C@@H](NC(=O)c1ccc2nc(C(C)(C)C)ccc2c1)c1ccc2[nH]nnc2c1 [Example C1, N-[(1R)-1-(1H-1,2,3-benzotriazol-6-yl)ethyl]-2-tert-butylquinoline-6-carboxamide]"
14,27 nM,"CC(C)(c1ccc2cc(C(=O)NCc3cccc4cnccc34)ccc2n1)C(F)(F)F [Example C7, N-(isoquinolin-5-ylmethyl)-2-(2,2,2-trifluoro-1,1-dimethylethyl) quinoline-6-carboxamide]"
15,18.7 nM,"CC(C)(C)c1ccc2nc(C(=O)NCc3ccc4[nH]nnc4c3)ccc2c1 [Example B6, N-(1H-1,2,3-benzotriazol-5-ylmethyl)-6-tert-butylquinoline-2-carboxamide]"

# Source: patent US8134004B2, “Substituted N-bicyclicalkyl bicycliccarboxyamide compounds” (Pfizer Inc., priority 2006, dated 2012)
